How the values were obtained:
[1] = Micropipette aspiration of polymersome membranes (elastic moduli, rupture, toughness); type: physicochemical; details: micropipette aspiration at 23° C.
Description: A tool that has been used to measure many of the material properties of bilayer vesicles is, for example, “micropipette aspiration.” In micropipette aspiration, the rheology and material properties of micron-sized objects are measured using glass pipettes. Small, micron diameter pipettes are used to pick up, deform, and manipulate micron-sized objects, such as giant lipid vesicles. The aspiration pressure is controlled by manometers, in which the hydrostatic pressure in a reservoir connected to the micropipette is varied in relation to a fixed reference.
A deformable object is aspirated using a pressure driving force—or suction pressure—ΔP, and the object is drawn within the pipette to a projection length LP. […] The bending modulus is measured by exerting small tensions on the membrane, to smooth out thermally driven surface undulations. […] Procedures for this important technique and its many modification are readily available to those skilled in the art. […]
Analogous to a lipid bilayer, at low but increasing aspiration pressures, the thermally undulating polymersome membrane is progressively smoothed, increasing the projected area logarithmically with tension, τ. From the slope of this increase (i.e., in tension units of mN/m) versus the fractional change, α, in vesicle area, the bending modulus, Kb, is calculated (see, e.g., Evans et al., 1990) with the following equation: […]

[2] = Laser-photobleaching lipid probe diffusivity in membranes; type: physicochemical

area expansion modulus, Ka [1]: ~180 mN/m
lipid probe diffusivity [2]: approximately 3×10^−8 cm^2/s
Structure (SMILES): CCCCCCCC/C=C\CCCCCCCC(=O)O[C@H](COC(=O)CCCCCCCCCCCCCCCCC)COP(=O)([O-])OCC[N+](C)(C)C [SOPC, 1-stearoyl-2-oleoyl phosphatidylcholine]

— patent publication US20080311045A1, “Polymersomes for Use in Acoustically Mediated Intracellular Drug Delivery in vivo” (Biovaluation & Analysis, Inc., priority 2007, published 2008)
